Some targets named below: Cytochrome P450 3A4 (Homo sapiens, UniProt P08684); Cytochrome P450 2D6 (Homo sapiens, UniProt P10635); Cytochrome P450 2C9 (Homo sapiens, UniProt P11712).
A further data set concerns the target T1, Cytochrome P450 1A2 (Homo sapiens, UniProt P05177).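 Note: PubChem cytochrome P450 panel assay, CYP1A2 panel member.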
T1 sequence (P05177 whole entry): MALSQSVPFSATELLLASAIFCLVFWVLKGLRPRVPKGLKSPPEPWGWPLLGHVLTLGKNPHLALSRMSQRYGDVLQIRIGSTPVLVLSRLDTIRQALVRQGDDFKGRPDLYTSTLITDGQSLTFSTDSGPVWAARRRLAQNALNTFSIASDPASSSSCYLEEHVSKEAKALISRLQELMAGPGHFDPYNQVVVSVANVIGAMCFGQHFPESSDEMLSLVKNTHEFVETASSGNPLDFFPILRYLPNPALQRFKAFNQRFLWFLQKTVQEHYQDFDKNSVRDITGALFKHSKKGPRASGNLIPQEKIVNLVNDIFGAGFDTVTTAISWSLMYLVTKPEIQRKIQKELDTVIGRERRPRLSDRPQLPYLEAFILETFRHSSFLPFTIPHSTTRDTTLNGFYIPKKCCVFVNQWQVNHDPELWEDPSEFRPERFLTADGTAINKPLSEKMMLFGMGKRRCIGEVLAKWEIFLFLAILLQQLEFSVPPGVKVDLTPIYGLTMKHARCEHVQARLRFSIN

Data set [1] is described as follows: Luminescence Cell-Based Dose Retest to Confirm Inhibitors of Cancer Stem Cells. [Related pubchem assays (depositor defined):AID2717, AID2721]. In kind it is functional. To be noted: Homo sapiens.
The target in the next data set is Cytochrome P450 2C19 (Homo sapiens, UniProt P33261). The data set can be described thus: Cytochrome panel assay with activity outcomes. Panel member name: p450-cyp2c19 Compounds with AC50 equal or less than 10 uM are considered active. In kind it is functional.
The target of data set [2] is Luciferin 4-monooxygenase (Photinus pyralis, UniProt P08659). Description: inhibition of purified Photinus pyralis luciferase – biochemical, luminescence, dose response (AID 1891).
Data set [3] can be described thus: Luminescence Cell-Based Dose Confirmation HTS to Identify Inhibitors of Platelet Dense Granule Release. [Related pubchem assays: 1663 (Primary HTS), 1678 (Summary of Project)]. In kind it is functional.

Data on 36 molecules can be found in ChEMBL document CHEMBL1201862, “PubChem BioAssay data set” (2004).

Calls of active or inactive are those of the source.

Sequence of Cytochrome P450 2C19 (P33261 whole entry): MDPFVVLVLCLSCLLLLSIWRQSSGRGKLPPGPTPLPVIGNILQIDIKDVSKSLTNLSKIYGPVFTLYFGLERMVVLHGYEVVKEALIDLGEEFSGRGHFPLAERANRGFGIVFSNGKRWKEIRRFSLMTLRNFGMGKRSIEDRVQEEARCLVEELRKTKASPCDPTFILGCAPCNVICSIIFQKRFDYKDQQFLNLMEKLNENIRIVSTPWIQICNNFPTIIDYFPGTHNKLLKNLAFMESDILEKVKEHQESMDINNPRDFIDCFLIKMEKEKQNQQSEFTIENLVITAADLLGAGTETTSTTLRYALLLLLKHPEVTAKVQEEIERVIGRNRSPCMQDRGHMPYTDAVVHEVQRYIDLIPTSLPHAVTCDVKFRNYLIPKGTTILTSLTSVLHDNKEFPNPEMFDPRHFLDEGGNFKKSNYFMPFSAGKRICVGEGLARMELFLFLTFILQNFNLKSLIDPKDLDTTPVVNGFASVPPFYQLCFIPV
Sequence of Cytochrome P450 2D6 (P10635 whole entry): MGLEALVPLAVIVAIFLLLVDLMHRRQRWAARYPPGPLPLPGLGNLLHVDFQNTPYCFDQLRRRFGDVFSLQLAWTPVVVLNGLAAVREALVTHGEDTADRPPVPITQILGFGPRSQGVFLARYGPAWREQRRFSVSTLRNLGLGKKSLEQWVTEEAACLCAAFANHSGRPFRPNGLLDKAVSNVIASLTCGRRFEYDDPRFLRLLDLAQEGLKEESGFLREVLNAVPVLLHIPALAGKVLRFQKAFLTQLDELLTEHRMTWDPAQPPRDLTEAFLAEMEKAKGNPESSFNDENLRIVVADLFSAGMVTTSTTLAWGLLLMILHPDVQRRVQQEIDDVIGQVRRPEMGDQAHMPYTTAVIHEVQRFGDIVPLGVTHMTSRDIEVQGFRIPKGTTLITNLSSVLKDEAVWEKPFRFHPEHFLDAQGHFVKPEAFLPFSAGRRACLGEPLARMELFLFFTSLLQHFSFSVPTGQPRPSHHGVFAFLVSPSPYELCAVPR
Sequence of Cytochrome P450 3A4 (P08684 whole entry): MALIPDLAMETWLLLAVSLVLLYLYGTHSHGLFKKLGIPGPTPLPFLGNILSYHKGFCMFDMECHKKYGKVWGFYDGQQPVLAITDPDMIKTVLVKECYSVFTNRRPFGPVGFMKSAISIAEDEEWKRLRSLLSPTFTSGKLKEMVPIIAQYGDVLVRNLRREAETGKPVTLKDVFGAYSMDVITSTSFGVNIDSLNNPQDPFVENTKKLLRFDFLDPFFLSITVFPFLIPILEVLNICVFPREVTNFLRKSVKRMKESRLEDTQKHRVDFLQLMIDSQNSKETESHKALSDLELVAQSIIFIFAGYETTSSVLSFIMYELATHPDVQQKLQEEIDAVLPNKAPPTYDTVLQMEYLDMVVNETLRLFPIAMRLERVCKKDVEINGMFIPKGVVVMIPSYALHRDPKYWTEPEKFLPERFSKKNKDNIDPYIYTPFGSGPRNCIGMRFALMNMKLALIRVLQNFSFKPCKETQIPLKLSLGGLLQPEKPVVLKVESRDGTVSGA
Sequence of Cytochrome P450 2C9 (P11712 whole entry): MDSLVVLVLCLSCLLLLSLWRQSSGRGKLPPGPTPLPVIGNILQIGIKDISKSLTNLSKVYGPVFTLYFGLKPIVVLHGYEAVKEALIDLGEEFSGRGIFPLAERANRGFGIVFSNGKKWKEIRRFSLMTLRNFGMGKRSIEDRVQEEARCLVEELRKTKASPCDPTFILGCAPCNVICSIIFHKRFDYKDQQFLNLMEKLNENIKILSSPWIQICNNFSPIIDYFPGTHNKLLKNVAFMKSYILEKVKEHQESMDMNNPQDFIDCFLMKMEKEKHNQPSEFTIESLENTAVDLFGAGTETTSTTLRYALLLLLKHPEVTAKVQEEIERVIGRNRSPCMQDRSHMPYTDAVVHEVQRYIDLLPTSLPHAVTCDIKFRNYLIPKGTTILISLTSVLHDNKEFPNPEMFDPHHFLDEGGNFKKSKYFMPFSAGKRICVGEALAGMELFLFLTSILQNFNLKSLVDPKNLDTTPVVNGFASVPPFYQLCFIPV
Sequence of Luciferin 4-monooxygenase (P08659 whole entry): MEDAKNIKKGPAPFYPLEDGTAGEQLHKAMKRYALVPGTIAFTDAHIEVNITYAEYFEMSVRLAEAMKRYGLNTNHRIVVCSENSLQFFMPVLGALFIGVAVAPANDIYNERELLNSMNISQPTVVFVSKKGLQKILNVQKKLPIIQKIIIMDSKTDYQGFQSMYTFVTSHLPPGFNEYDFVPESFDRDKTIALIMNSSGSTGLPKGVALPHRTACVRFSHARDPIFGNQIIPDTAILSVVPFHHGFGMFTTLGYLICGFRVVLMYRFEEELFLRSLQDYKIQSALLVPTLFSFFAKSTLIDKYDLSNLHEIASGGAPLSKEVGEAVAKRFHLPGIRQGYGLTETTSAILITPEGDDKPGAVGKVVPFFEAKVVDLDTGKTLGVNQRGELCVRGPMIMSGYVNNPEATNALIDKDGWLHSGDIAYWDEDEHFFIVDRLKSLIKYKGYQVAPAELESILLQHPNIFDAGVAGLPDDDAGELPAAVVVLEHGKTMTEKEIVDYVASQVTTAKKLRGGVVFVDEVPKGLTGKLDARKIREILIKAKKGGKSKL

As usually defined, the AC50 is the concentration at which the activity in the assay is half-maximal. As to `CS(=O)(=O)N1CCC2(CC1)CN(Cc1nccs1)C2`, the AC50 at Cytochrome P450 1A2 was 6.31 µM (inconclusive). On to `N#CCCn1c(=O)c(-c2ccc(F)cc2)nc2cnc(N3CCOCC3)nc21`, for which the AC50 at Cytochrome P450 1A2 is 20 µM (inconclusive). As to `N[C@@]1(C(=O)O)CN[C@H](C(=O)O)C1`, at Cytochrome P450 1A2, the half-maximal activity concentration (AC50) is 31.6 µM (inconclusive). With `Cc1ccc(-c2nc(C[S+]([O-])CC(=O)NCc3ccc4c(c3)OCO4)c(C)o2)cc1` (configuration not stated), in data set [1], the AC50 was > 195 µM (inactive).

Turning to `O=C(c1coc2ccccc2c1=O)N1CCN(c2cccc(C(F)(F)F)c2)CC1`, at Cytochrome P450 3A4, the concentration at half-maximal activity (AC50) is 22.4 µM (inconclusive). As for `Cn1c(=O)c2c(nc(N3CCN(c4ccccn4)CC3)n2Cc2ccc(Cl)cc2Cl)n(C)c1=O`, the half-maximal activity concentration (AC50) at Cytochrome P450 3A4 was 2.24 µM (inconclusive). Take `O=C(c1cccc(S(=O)(=O)N2CCc3ccccc3C2)c1)N1CCN(c2ccc(O)cc2)CC1`: the AC50 in data set [1] was 4.51 µM (active).

With `N=C(N)N/N=C(/c1ccccc1)c1ccc(O)cc1O`, the AC50 on Cytochrome P450 3A4 was 3.98 µM (inconclusive). Turning to `N[C@@H](CCCCP(=O)(O)O)C(=O)O`, the AC50 on Cytochrome P450 1A2 is 31.6 µM (inconclusive). For the molecule `O=[N+]([O-])c1cc([As](=O)(O)O)ccc1O` [ROXARSONE], the AC50 result at Cytochrome P450 2C19 is given as “inconclusive”. `CCN(CC)CCNC(=O)COc1ccc(OC)cc1` [MEFEXAMIDE]: the concentration at half-maximal activity (AC50) on Cytochrome P450 1A2 and on Cytochrome P450 2D6 was 12.6 µM (inconclusive) each time. Take `Cc1cc(C)cc(C(=O)Nc2nnc(SCC(=O)N3CCCc4ccccc43)s2)c1`: in data set [1], the concentration at half-maximal activity (AC50) was 4.46 µM (active). Take `COc1ncc2nc(-c3cc(F)cc(F)c3)c(=O)n(C3CC3)c2n1`: the figures for the AC50 at Cytochrome P450 3A4 and on Cytochrome P450 2C9 were 12.6 µM (inconclusive) and 31.6 µM (inconclusive), respectively.

As for `CN(N=O)c1cc(O)ccc1O` [DEPHOSTATIN], the AC50 at Cytochrome P450 1A2 was 31.6 µM (inconclusive); on Cytochrome P450 2D6, 31.6 µM (inconclusive); at Cytochrome P450 2C9, 10 µM (inconclusive); on Cytochrome P450 2C19 (read-out: AC50), 25.1 µM (inconclusive). Take `O=C(c1ccccc1F)c1cn(CC(=O)N2CCOCC2)c2ccccc12`: the concentration at half-maximal activity (AC50) on Cytochrome P450 3A4 was 17.8 µM (inconclusive).

Turning to `COc1ccc(-c2nc3cnc(N(C)C)nc3n(CCc3ccccc3)c2=O)cc1`, the half-maximal activity concentration (AC50) on Cytochrome P450 1A2 is 1.26 µM (inconclusive).

Regarding `Cc1ccc(Nc2ncccc2C(=O)NCc2cccs2)c(C)c1`, the half-maximal activity concentration (AC50) at Cytochrome P450 2D6 is 25.1 µM (inconclusive); on Cytochrome P450 2C19 (read-out: AC50), 7.08 µM (inconclusive). With `COc1cccc(/C=N\NC(=O)C2C(=O)NCC2c2ccccc2)c1O` (configuration not stated), the AC50 on Cytochrome P450 1A2 was 17.8 µM (inconclusive); on Cytochrome P450 3A4, 25.1 µM (inconclusive); on Cytochrome P450 2C19 (read-out: AC50), 39.8 µM (inconclusive). Turning to `C=CCOc1ccc2cccc(/C=N/NC(=O)c3cc4cc([N+](=O)[O-])ccc4s3)c2c1`, the AC50 on Cytochrome P450 3A4 is 2.51 µM (inconclusive); on Cytochrome P450 2C19 (read-out: AC50), 0.398 µM (inconclusive). As for `COc1cc2c(cc1OC)CN(CC(=O)Nc1ccc3c(c1)OCO3)CC2`, the results for the half-maximal activity concentration (AC50) at Cytochrome P450 1A2, at Cytochrome P450 2C9 and at Cytochrome P450 2C19 (read-out: AC50) were 20 µM (inconclusive), 14.1 µM (inconclusive) and 22.4 µM (inconclusive), respectively. As to `CCN(Cc1cc(Cl)cc(C)c1O)Cc1c(O)ccc2ccccc12`, the AC50 at Cytochrome P450 1A2 is 1 µM (inconclusive); on Cytochrome P450 2C9, 5.01 µM (inconclusive). Take `S=C1N(c2ccccc2)C(c2ccc(Cl)cc2)N2CCCN12` (configuration not stated): the AC50 on Cytochrome P450 3A4 was 12.6 µM (inconclusive); on Cytochrome P450 2C9, 10 µM (inconclusive). Turning to `O=C(O)c1cc2cc(Cl)ccc2oc1=O`, the AC50 on Cytochrome P450 1A2 was 0.0251 µM (inconclusive); on Cytochrome P450 2C9, 0.00562 µM (inconclusive). The EC50 is the concentration at which the effect is half-maximal. In the case of `CC1(C)CC(=O)C2=C(C1)N(Cc1ccccc1)C(=O)C2(O)C(F)(F)F` (configuration not stated), the EC50 in data set [2] and in data set [3] was > 112 µM (not active) each time. Further, on Cytochrome P450 3A4, the AC50 is 20 µM (inconclusive). Regarding `CC(C)=C1C(=O)C(c2ccccc2)=C2CN3C(=O)N(CCc4ccccc4)C(=O)[C@]3(Cc3ccccc3)[C@H]21`, the concentration at half-maximal activity (AC50) on Cytochrome P450 3A4 is 5.01 µM (inconclusive); at Cytochrome P450 2C19 (read-out: AC50), 25.1 µM (inconclusive). As for `Cc1ccc(S(=O)(=O)Nc2ccc3c(c2)CC(=O)N([C@H](C)CO)C[C@@H](C)[C@H](CN(C)Cc2ccc(-c4ccccc4)cc2)O3)cc1`, in data set [1], the half-maximal activity concentration (AC50) was 3.9 µM (active). Turning to `CCOC(=O)CCCNC(=O)c1cncc(Br)c1`, at Cytochrome P450 2C19 (read-out: AC50), the AC50 was 39.8 µM (inconclusive). In the case of `Cc1ccccc1C(=N)c1ccccc1Cc1cccc2ccccc12`, the AC50 on Cytochrome P450 3A4 is 1.58 µM (inconclusive). On to `Cc1cc(C)c2c(SCc3ccc(Cl)cc3Cl)nc(N)nc2n1`, for which, at Cytochrome P450 2C19 (read-out: AC50), the AC50 is 1 µM (inconclusive). As to `COc1cccc(-c2sc3ccccc3c2-c2ccc(OCCN3CCOCC3)cc2)c1`, in data set [1], the AC50 is 2.32 µM (active).

For `Cc1cccc(N(C)C(=O)c2cc3c(O)nc4ccc(C)cc4c3s2)c1`, the concentration at half-maximal activity (AC50) in data set [1] was 0.394 µM (active). In addition, the EC50 was > 112 µM (not active) in data set [2] and 70.7 µM (active) in data set [3]. Regarding `CC(OC(=O)c1cccs1)C(=O)NC1CCCCC1C` (configuration not stated), in data set [1], the AC50 was > 195 µM (inactive). Take `COc1cc2c(cc1OC)C(CCN)=NCC2`: the half-maximal activity concentration (AC50) was 5.01 µM (inconclusive) at Cytochrome P450 1A2, 1.58 µM (inconclusive) at Cytochrome P450 2D6, 3.98 µM (inconclusive) on Cytochrome P450 3A4 and “inconclusive” on Cytochrome P450 2C19. Take `Cc1ccc(Cn2nnc3c(O)nc(C4CCCN(C(=O)Nc5ccc(F)cc5F)C4)nc32)cc1` (configuration not stated): the AC50 on Cytochrome P450 1A2 is 31.6 µM (inconclusive); at Cytochrome P450 2D6, 25.1 µM (inconclusive); at Cytochrome P450 2C9, 22.4 µM (inconclusive); at Cytochrome P450 2C19 (read-out: AC50), 39.8 µM (inconclusive). For `O=C(Nc1cccc(Cl)c1)Nn1cnnc1`, the AC50 at Cytochrome P450 1A2 and at Cytochrome P450 3A4 was 3.16 µM (inconclusive) throughout.

For the molecule `COc1ccccc1CN1CC2(CCN(C(=O)c3ccncc3)CC2)C1`, the half-maximal activity concentration (AC50) at Cytochrome P450 3A4 is 7.94 µM (inconclusive).
